Test results as given in patent publication US12195804B2, “Treatment of squamous cell carcinoma” (Board of Regents, The University of Texas System, priority 2018, dated 2025).

How the values were obtained:
Format in all cases: cell-based, human
HNSCC cell lines = assay: CellTiter-Glo cell viability assay; conditions: 0-200 nM, 72 hours
Description: Cell viability assay. […] A CellTiter-Glo luminescent cell viability assay (Promega, Madison, WI) was performed as described previously (Castel et al., 2016; Muellner et al., 2011). Inhibitory concentration (ICs) and area under the curve (AUC) values were calculated using the drexplorer R package with a best-fit dose-response model (Zumsteg et al., 2016). The combination indices were calculated using the Chou-Talalay method (Cal et al., 2017) in CalcuSyn (Biosoft, Cambridge, UK). We tested the reproducibility and robustness of the data generated using three quality control parameters as described previously (Bohnacker et al., 2017). These parameters were the concordance correlation coefficient, location shift, and maximum standard deviation between two biological replicates for three technical and two biological replicates. Based on heuristics from our previous screening studies in lung cancer (Bohnacker et al., 2017), the cut-offs for reproducibility were a concordance correlation coefficient greater than 0.8, a location shift less than 0.9, and a standard deviation less than 0.23 based on the normal mixture fit model. Experiments not satisfying these criteria were repeated. The replicate with the smallest experimental variation measured by the median of standard deviation was chosen as a representative of the replicates, and its IC values served as the final values for subsequent analysis.
Cell lines were classified as sensitive based on IC70 values less than the peak plasma concentration for each drug. To determine if cross-comparison of the PI3K/mTOR inhibitors as a class was feasible, their drug sensitivity patterns were compared with those of three cell cycle kinase inhibitors tested previously (Zhang et al., 2017). The PI3K/mTOR pathway inhibitors clustered separately from the cell cycle inhibitors (FIG. 12C).

PJ34 cells = assay: CellTiter-Glo viability, PJ34 parental and NOTCH1 KO; conditions: 72 hours
Description: (§1) FIGS. 9A-9D: NOTCH1 knockout (KO) sensitizes two NOTCH1^WT head and neck squamous cell carcinoma (HNSCC) cell lines to PI3K/mTOR pathway inhibition in vitro. Two NOTCH1^WT HNSCC cell lines (PJ34 and UMSCC49 [UM49]), parental cell lines, and NOTCH1 KO cell lines were treated with PI3K/mTOR pathway inhibitors. FIG. 9A. The CellTiter-Glo assay was used to assess the viability of cells treated for 72 hours with the indicated concentrations of GSK2126458 (GSK212). FIG. 9B. Western blot analysis of apoptosis markers, NOTCH1, and NOTCH intracellular domain (NICD) was performed after treatment with the indicated concentrations of GSK212 for 48 hours. FIG. 9C. Apoptosis in cells treated with 50 nM GSK212 or 200 nM BEZ235 for 48 hours was measured using an Annexin V/propidium iodide assay. Values are the means±standard deviations of three independent experiments. *p<0.05, unpaired two-tailed Student t-test. FIG. 9D. […] Colony areas as percentages of the control were measured using ImageJ. […]
(§2) Cell viability assay. […] Inhibitory concentration (ICs) and area under the curve (AUC) values were calculated using the drexplorer R package with a best-fit dose-response model (Zumsteg et al., 2016). The combination indices were calculated using the Chou-Talalay method (Cal et al., 2017) in CalcuSyn (Biosoft, Cambridge, UK). […]

UMSCC49 cells = assay: CellTiter-Glo viability, UMSCC49 parental and NOTCH1 KO; conditions: 72 hours
Description: as §1, §2

COc1ncc(-c2ccc3nccc(-c4ccnnc4)c3c2)cc1NS(=O)(=O)c1ccc(F)cc1F [GSK2126458]
cell viability, NOTCH1MUT and NOTCH1WT cell lines (HNSCC cell lines): differential effects | IC70 (PJ34 cells; PJ34 NOTCH1 KO): 24 nM | IC70 (PJ34 cells; PJ34 parental): 100 nM | IC70 (UMSCC49 cells; UMSCC49 NOTCH1 KO): 360 nM | IC70 (UMSCC49 cells; UMSCC49 parental): 1480 nM
